Values of other authors, collected in patent US20040224037A1, “Devastating treatment against hiv/aids with capsaicin” (priority 2003, published 2004).
Read-outs that look alike come from different tables or passages of the source. Ends that are not written are not given here.

Tests used:
[1] = test system: Bacillus cereus
[2] = test system: Clostridium sporogenes
[3] = test system: Bacillus subtilis
[4] = test system: Streptococcus pyogenes
[5] = test system: Candida albicans
[6] = test system: Salmonella typhimurium
[7] = test system: Staphylococcus aureus
[8] = test system: Escherichia coli
[9] = test system: masT cells; conditions: suspensions of mast cells in rats
[10] = test system: proliferating macrophages from the blood of four patients with AIDS dementia
[11] = test system: lymphocytes
[12] = test system: nk cells; conditions: deviation of more or less 11.5%
[13] = test system: rats; conditions: for blood pressure and heart rate after pretreatment: previous anesthesia, Capsaicin pretreatment 100 mg during four days
[14] = test system: Sprague-Dawley cd rats; conditions: pregnant rats, 0, 500 or 5000 mg/kg/day
[15] = test system: macrophages; conditions: in vitro
[16] = test system: macrophages of mice
[17] = test system: human leucocytes
[18] = test system: guinea pig peritoneal macrophages
[19] = test system: tongue; conditions: Nelson 1910
[20] = test system: substance p(sp); conditions: pretreatment with Capsaicin in rats
[21] = test system: b-endorphin; conditions: rats; 3,5,7 and 15 days after Capsaicin administration
[22] = test system: histamine and 5-hydroxitryptamine; conditions: treatment with Capsaicin in rats
[23] = test system: herpes simplex; conditions: sc. administration, rats infected with herpes simplex
[24] = test system: [4-(methylnitrosamino)-1-(3-pyridyl)-1-butanone] nnk
[25] = test system: cancer
[26] = test system: humans
[27] = test system: rats; conditions: higher doses reduced acid output
[28] = test system: intestinal glucose absorption; conditions: 140 mcg/ml, rats in vitro
[29] = Capsaicin administration at high concentration
[30] = test system: enzyme (cyp2e1) of cytochrome p4502e1; conditions: in the liver
Sequence of enzyme (cyp2e1) of cytochrome p4502e1 (P05181 whole entry, species assumed): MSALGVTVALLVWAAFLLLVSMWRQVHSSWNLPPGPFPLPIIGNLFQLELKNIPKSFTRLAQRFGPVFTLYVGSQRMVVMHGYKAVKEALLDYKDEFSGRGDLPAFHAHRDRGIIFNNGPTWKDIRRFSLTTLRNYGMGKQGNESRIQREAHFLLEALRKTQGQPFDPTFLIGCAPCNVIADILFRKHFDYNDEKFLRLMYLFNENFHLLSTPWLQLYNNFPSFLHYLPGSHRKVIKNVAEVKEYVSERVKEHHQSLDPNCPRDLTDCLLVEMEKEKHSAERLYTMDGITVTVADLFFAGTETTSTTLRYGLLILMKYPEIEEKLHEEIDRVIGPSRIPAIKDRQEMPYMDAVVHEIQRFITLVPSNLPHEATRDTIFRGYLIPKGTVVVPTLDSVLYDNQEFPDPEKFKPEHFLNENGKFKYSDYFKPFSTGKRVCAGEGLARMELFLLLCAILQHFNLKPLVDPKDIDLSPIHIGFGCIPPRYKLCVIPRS

[31] = test system: mice
[32] = test system: cats
[33] = test system: cats and dogs; conditions: 50 mcg/kg iv. in cats and dogs
[34] = test system: dogs; conditions: 10 mcg/kg iv. in dogs
[35] = test system: rats; conditions: 18 mcg/kg injected, anesthesia, pretreatment 4,8,16 and 200 mg/kg each 12 hours
[36] = test system: dogs
[37] = test system: rats; conditions: iv. treatment, also printed 0.5 mg/kg
[38] = test system: human

Molecule: COc1cc(CNC(=O)CCCCCCC(C)C)ccc1O [dihydroCapsaicin, 8-methylnonanoic acid vanillylamide]
- effect on growth / activity [1]: did not show activity
- effect on growth / activity [2]: did not show activity
- effect on growth / activity [3]: did not show activity
- effect on growth / activity [4]: did not show activity
- activity [5]: did not show activity
- activity [6]: did not show activity
- activity [7]: did not show activity
- activity [8]: did not show activity

Molecule: methionyl-lysyl-bradykinin
- power in provoking histamine release, compared with substance p and polisteskinin [9]: Less powerful

Molecule: CCNCCCNC[C@@H]1C[C@@H]1CNCCCNCC.Cl.Cl.Cl.Cl [SL-11037, n-ethyl-n′-(2-(3′-ethylamino-propylaminomethyl)-cis-cyclopropylmethyl)-propane 1,3-diamine tetrahydrochloride]
- effect on proliferating macrophages [10]: potent effect of inhibition

Molecule: CCNCCCNC[C@@H]1C[C@H]1CNCCCNCC.Cl.Cl.Cl.Cl (relative stereo) [SL-11044, N-ethyl-N′-(2-(3′-ethylamino-propylaminomethyl)-trans-cyclopropylmethyl)-propane 1,3-diamine tetrahydrochloride]
- effect on proliferating macrophages [10]: potent effect of inhibition

Molecule: b-endorphin: group of protein with potent analgesic properties that occur naturally in the brain (YGGFMTSEKSQTPLVTLFKNAIIKNAYKKGE; Beta-endorphin; UniProt P01189 237-267, looked up)
- proliferative response of lymphocytes [11]: increases
- increase of activity of nk cells [12]: 30.5%

Molecule: CN1[C@@H]2CC[C@H]1C[C@@H](OC(=O)C(CO)c1ccccc1)C2 (some centres unmarked) [atropine]
- counteraction of the effect of Capsaicin ([13]; rat, in vivo): able to counteract the effect of Capsaicin

Molecule: polyoxyethylene sorbitan monooleate [tw80]
- signs of toxicity [14]: no dose-related signs of toxicity

Molecule: CCNCCCCNCCCCNCCCCNCCCCNCC [BE-4444, 1,19-bis(ethylamino)-5,10,15-triazanonadecane]
- effect on proliferating macrophages [10]: potent effect of inhibition

Molecule: CCNCCCNCCCNCCCNCC [Denop, diethylnospermine]
- effect on proliferating macrophages [10]: potent effect of inhibition

Molecule: CCNCCCNC/C=C/CNCCCNCC [SL-11048]
- effect on proliferating macrophages [10]: potent effect of inhibition

Molecule: CCNCCCNC[C@@H]1CC[C@H]1CNCCCNCC.Cl.Cl.Cl.Cl (relative stereo) [SL-11038, N-ethyl-N′-(2-(3′-ethylamino-propylaminomethyl)-trans-cyclobutylmethyl)-propane 1,3-diamine tetrahydrochloride]
- effect on proliferating macrophages [10]: potent effect of inhibition

Molecule: C=CCc1ccc(O)c(OC)c1 [eugenol]
- concentration required to completely inhibit reactive oxygen species, compared with Capsaicin [15]: Higher concentrations

Molecule: arg-pro-lys-pro-gln-gln-phe-phe-gly-leu-met-nh2 (RPKPQQFFGLM-NH2; UniProt P20366 58-68, looked up) [Substance p (sp), undecapeptide neuropeptide]
- phagocytosis [16]: stimulates phagocytosis
- phagocytosis [17]: stimulates phagocytosis
- macrophage activation, liberation of reactive oxygen species [18]: activated such macrophages

Molecule: kallidin: neuropeptide provoking histamine release (KRPPGFSPFR; Lysyl-bradykinin; UniProt P01042 380-389, looked up)
- power in provoking histamine release, compared with substance p and polisteskinin [9]: Less powerful

Molecule: COc1cc(CNC(=O)CCCC/C=C/C(C)C)ccc1O [Capsaicin, 8-methyl-n-vanillyl-6-nonenamide]
- concentration giving perceptible warmth on tongue ([19]; 1 ppm): 1 µg/mL
- concentration giving persistent burning on tongue ([19]; 10 ppm): 10 µg/mL
- effect upon the substance p(sp) at intestinal level [20]: did not have effect
- b-endorphin concentration in the hypothalamus [21]: decreased
- histamine and 5-hydroxitryptamine [22]: increment
- production of anions superoxides, peroxide of hydrogen and nitrites by macrophages ([15]; 10 mcm): completely inhibited
- effect on growth / activity [1]: did not show activity
- effect on growth / activity [2]: did not show activity
- effect on growth / activity [3]: did not show activity
- effect on growth / activity [4]: did not show activity
- activity [5]: did not show activity
- activity [6]: did not show activity
- activity [7]: did not show activity
- activity [8]: did not show activity
- mortality [23]: reduced mortality
- effect on tobacco specific carcinogen nnk [24]: inhibited
- growth (cancer) [25]: inhibit growth at low concentration
- time for area of hyperalgesia to reach a maximum ([26]; 10 mcg intradermal): ≤ 5 min
- time to disappearance of hyperalgesia ([26]; 10 mcg intradermal): ≤ 15 min
- time for area of hyperalgesia to reach a maximum ([26]; 100 mcg intradermal): ≤ 7 min
- time to disappearance of hyperalgesia ([26]; 100 mcg intradermal): ≤ 137 min
- dose at which acid secretory response reached a maximum [27]: 1 mg/kg
- intestinal glucose absorption [28]: inhibitory effect
- time after which recovery of the desensitization is not complete [29]: > 60 days
- activity of enzyme cyp2e1 [30]: capable to inhibit
- GLINSUKON EXP (LD50) ([31]; ig. adm, mice): 67 mg/kg
- GLINSUKON EXP (LD50), value in brackets ([31]; ig. adm, mice, second value in brackets): 190 mg/kg
- GLINSUKON EXP (LD50) ([31]; iv. adm, mice): 0.5 mg/kg
- LD50 ([31]; iv., male mice): 0.56 mg/kg
- GLINSUKON EXP (LD50) ([31]; sc. adm, mice): 8.5 mg/kg
- toxicity effect measured by LD50 compared between routes ([31]; sc., im., and intraperitoneal (ip.), mice): similar
- effect of iv. dose ([32]; 200 mcg/kg iv. in cats): bradycardia, apnea
- tension reduction ([32]; 200 mcg/kg iv. in cats): 46 mmhg
- effect of iv. dose ([32]; 400 mcg/kg iv. in cats): higher post-hypotension and a second period of apnea
- blood pressure [33]: fast fallen in blood pressure
- drop of the pulse, first value [33]: 108 min⁻¹
- drop of the pulse, second value [33]: 24 min⁻¹
- subsequent tachycardia [33]: 160 min⁻¹
- effect of iv. dose [34]: apnea, bradycardia, hypotension
- blood pressure and heart rate after pretreatment ([13]; 1 mcg injected, rats): normal blood pressure and rate of the heart
- effect of iv. dose on blood pressure and heart rate ([13]; 1 mcg or 3 mcg/kg iv. in rats): reproduced three phases
- blood pressure and heart rate after pretreatment ([13]; 50 mcg slow infusion over 12 mins): normal blood pressure and rate of the heart
- Bezold-Jarisch reflex after pretreatment [35]: significant inhibition of the Bezold-Jarisch reflex
- respiratory effect ([36]; administration rate 10-20 mcg/kg/min, dogs): fast superficial respiration, but without apnea
- respiratory effect ([36]; injected 0.5-20 mcg/kg, dogs anesthetised with chloralose): apnea, followed by a fast superficial respiration
- letal dose [37]: 0.5 mg/kg

Molecule: CCNCCCNC/C=C\CNCCCNCC.Cl.Cl.Cl.Cl [SL-11047, N′-bis (3-ethylaminopropyl)-cis-but-2-ene-1,4-diamine tetrahydrochloride]
- effect on proliferating macrophages [10]: potent effect of inhibition

Molecule: CCO [ethanol]
- blood alcohol concentration ([38]; 0.5 fluid ounces (about 15 ml) in a 150 pound human): 0.02%
- blood alcohol concentration that starts to produce measurable mental impairment ([38]; in vivo): 0.05%
- fraction processed by the liver ([38]; in vivo): over 90%
